The record followed here is US9981988B2, “Polymorphic forms and co-crystals of a c-Met inhibitor” (AMGEN, INC., priority 2014, dated 2018).

The series is described as follows: Solubility in organic solvents. The format is physicochemical. The settings on record: 20 °C, organic solvent or mixture, thermodynamic from solid; about 20 to about 25° C.; solvent not given. How it is done:
In all studies, excess solid of the compound was allowed to equilibrate for at least 12 hours while stirring.

As to `COCCOc1cnc2ccn([C@H](C)c3nnc4c(F)cc(-c5cnn(C)c5)cn34)c(=O)c2c1` [DMSO hemisolvate form of Compound M, 6-{(1R)-1-[8-fluoro-6-(1-methyl-1H-pyrazol-4-yl)[1,2,4]triazolo[4,3-a]pyridin-3-yl]ethyl}-3-(2-methoxyethoxy)-1,6-naphthyridin-5(6H)-one], the solubility was approximately 164 mg/mL.
